The results in this text go back to patent US20230295201A1 (Gilead Sciences, Inc., priority 2020, published 2023).

What all share (type): cell-based
Test [1] addresses HCV replicon 1B. Put plainly: HCV Rep 1B EC50 (replicon luciferase). As for the experimental part:
(§1) Compounds were serially diluted in ten steps of 1:3 dilutions in 384-well plates. All serial dilutions were performed in four replicates per compound within the same 384-well plate. […] To each well of a black polystyrene 384-well plate (Greiner Bio-one, Monroe, NC), 90 μL of cell culture medium (without Geneticin) containing 2000 suspended HCV replicon cells was added with a Biotek μFlow workstation. For compound transfer into cell culture plates, 0.4 μL of compound solution from the compound serial dilution plate was transferred to the cell culture plate on a Biomek FX workstation. The DMSO concentration in the final assay wells was 0.44%. The plates were incubated for 3 days at 37° C. with 5% CO2 and 85% humidity. The HCV replicon assay was a multiplex assay, able to assess both cytotoxicity and antireplicon activity from the same well. The CC50 assay was performed first. The media in the 384-well cell culture plate was aspirated, and the wells were washed four times with 100 μL of PBS each, using a Biotek ELX405 plate washer. A volume of 50 μL of a solution containing 400 nM calcein AM (Anaspec, Fremont, CA) in 1×PBS was added to each well of the plate with a Biotek μFlow workstation. The plate was incubated for 30 min at room temperature before the fluorescence signal (excitation 490 nm, emission 520 nm) was measured with a Perkin-Elmer Envision plate reader. The EC50 assay was performed in the same wells as the CC50 assay. The calcein-PBS solution in the 384-well cell culture plate was aspirated with a Biotek ELX405 plate washer. A volume of 20 μL of Dual-Glo luciferase buffer (Promega, Madison, WI) was added to each well of the plate with a Biotek μFlow Workstation. The plate was incubated for 10 min at room temperature. A volume of 20 μL of a solution containing a 1:100 mixture of Dual-Glo Stop & Glo substrate (Promega, Madison, WI) and Dual-Glo Stop & Glo buffer (Promega, Madison, WI) was added to each well of the plate with a Biotek μFlow Workstation. The plate was then incubated at room temperature for 10 min before the luminescence signal was measured with a Perkin-Elmer Envision Plate Reader.
On the technique in general: Replicon systems follow genome replication, usually without infectious particles.

In test [2] the target is HCV replicon 2A. The test is described as follows: HCV Rep 2A EC50 (replicon luciferase). How it is done: as §1
Test [3] concerns DENV2 replicon. The test is described as follows: DENV-2 Huh-7 Rep EC50 (replicon luminescence). The settings on record: read-out: DENV-2 Huh-7 Rep EC50. In a few lines: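 Huh-7 cells carrying a DENV2 replicon, 5,000 cells/well, were incubated with dosed compounds for 48 h at 37° C. EnduRen live-cell substrate was added 1.5 h before luminescence reading. EC50 came from dose-response against DMSO-only wells.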

Test [4] has as its system RSV strain A2. Put plainly: RSV HEp-2 EC50 (infectious cytopathic cell protection assay). The settings on record: HEp-2 cells, RSV A2, 4 days, read-out: RSV HEp-2 EC50. In a few lines:
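HEp-2 cells mixed with titered RSV A2 at 50,000 cells/ml were added to plates holding 3-fold serial compound dilutions in DMSO, then incubated 4 days at 37° C. Cytoprotection was read as cell viability by CellTiter-Glo luminescence and converted to percent inhibition against 0% and 100% inhibition controls.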

For test [5], the system named is HRV16. The test is described as follows: HRV16 HELA EC50 (cytopathic effect in H1-HeLa cells). In a few lines:
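H1-HeLa cells seeded one day before, given 3-fold serial compound dilutions in triplicate just prior to infection with pre-titrated virus. Incubated 96 h at 33 °C/5% CO2; protection from cytopathic effect read as viability by CellTiter-Glo luminescence, normalised to infected untreated (0%) and uninfected (100%) controls.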
A general note: Damage to the host cells serves as the signal in cytopathic effect assays.

Test [6] has as its system RSV A2. Put plainly: RSV NHBE EC50 (RSV A2 antiviral assay in normal human bronchial epithelial cells). The note with it: NHBE cells, RSV A2, 4 days, read-out: RSV NHBE EC50.
Test [7] has as its system Dengue 2, New Guinea strain (NGC). Put plainly: DENV-2 moDC EC50 (qPCR in human monocyte-derived dendritic cells). The settings on record: moDCs. As for the experimental part: Human monocyte-derived dendritic cells (moDCs) were derived from CD14+ monocytes (AllCells) cultured in Human Mo-DC Differentiation medium containing GM-CSF and IL-4 (Miltenyi Biotec). On day 7, moDCs were harvested by mechanical disruption, washed and suspended in serum-free RPMI. moDCs were infected with Vero-derived Dengue 2, New Guinea strain (NGC) at a MOI=0.1 for two hours in serum-free RPMI with gentle agitation at 37° C. Cells were washed and resuspended in 10% serum-containing RPMI (Gibco, supplemented with sodium pyruvate, NEAA, Penicillin-Streptomycin). 10^5 cells were plated in triplicate in 96-well plates with compounds dispensed at graded doses (Hewlett-Packard D300 Digital Dispenser). All wells were normalized to 0.25% DMSO. At 48 hours, cells were washed with 1×PBS and all supernatants removed. Total RNA was extracted using RNEasy 96 plates (Qiagen) and used to generate first-strand cDNA using XLT cDNA 5× Supermix (QuantaBio). cDNA was used as a template in a Taqman qPCR duplex reaction specific to DENV2 viral and GAPDH gene expression. EC50 values were determined using Prism Graphpad software, with normalization to a positive control and no compound negative control wells.

Test [8] deals with Dengue serotype 2 New Guinea C (NGC) strain. Put plainly: DENV-2 Huh-7 EC50 (qPCR in Huh7 cells). As for the experimental part: Huh7 (Human hepatocarcinoma 7) cells were maintained in 10% FCS-containing DMEM complete media. On the day of the assay, cells were trypsinized (0.1% Trypsin-EDTA), washed and infected for 2 hours in serum-free DMEM with Dengue serotype 2 New Guinea C (NGC) strain at MOI=0.1 with gentle agitation at 37° C. After 2 hours, cells were washed with serum-free media and suspended in 10% FCS-containing DMEM (Gibco, supplemented with sodium pyruvate, NEAA, Penicillin-Streptomycin). 10^5 cells were plated in triplicate in 96-well plates with compounds dispensed at graded doses (Hewlett-Packard D300 Digital Dispenser). All wells were normalized to 0.25% DMSO. At 48 hours, cells were washed with 1×PBS and all supernatants removed. Total RNA was extracted using RNEasy 96 plates (Qiagen) and used to generate first-strand cDNA using XLT cDNA 5×Supermix (QuantaBio). cDNA was used as a template in a Taqman qPCR duplex reaction specific to DENV2 viral and GAPDH gene expression. EC50 values were determined using Prism Graphpad software, with normalization to a positive control and no compound negative control wells.
(In general: In qPCR the cycle at which signal appears reflects the starting amount.)

Setting [9] is: replicon cells, 3 days, read-out: HCV Rep 1B EC50.
The mark [10] stands for this setting: replicon cells, 3 days, read-out: HCV Rep 2A EC50.
The mark [11] stands for this setting: H1-HeLa cells, 96 h, 33° C.; read-out: HRV16 HELA EC50.
Setting [12] is: Dengue virus, DENV2, Dendritic cell, 48 h.
Setting [13] is: Dengue virus, DENV2, Huh-7, 48 h.
Where [14] appears, read: Dengue virus, DENV2, Huh-7, 48 h, Huh-7 replicon cells, 48 hours.
[15] abbreviates: 96 h, H1-HeLa cells, 33° C., read-out: HRV16 HELA EC50.
Where [16] appears, read: human respiratory syncytial virus, NHBE, 96 h.
The mark [17] stands for this setting: human respiratory syncytial virus, 96 h.
[18] abbreviates: human respiratory syncytial virus, HEp-2, 96 h.

Each structure is given as a SMILES string. Read-outs that look alike come from different tables or passages of the source.

As for `CCC(CC)COC(=O)[C@H](C)NP(=O)(N[C@@H](C)C(=O)OC1CCCCC1)OC[C@@]1(C#N)O[C@@H](c2ccc3c(N)ncnn23)[C@H](O)[C@@H]1O` (single isomer, unassigned) [Example 227], the EC50 in test [1] (setting [9]) is 10.2 µM; in test [2] (setting [10]), 4.76 µM; in test [3] (Huh-7 replicon cells, 48 hours) it was 39.4 µM; in test [4] it was 0.614 µM; in test [5] (setting [11]), 4.94 µM; in test [6] it was 0.126 µM.
As to `CCC(C)(C)COC(=O)[C@H](C)NP(=O)(OC[C@@]1(C#N)O[C@@H](c2ccc3c(N)ncnn23)[C@H](O)[C@@H]1O)Oc1ccccc1` (single isomer, unassigned) [Example 255], the EC50 worked out at 0.086 µM in test [7] (setting [12]); 0.824 µM in test [8] (48 hours); 4.95 µM in test [3] (Huh-7 replicon cells, 48 hours); 0.018 µM in test [4]; 0.043 µM in test [6].
As to `CCCCOC(=O)[C@H](C)N[P@](=O)(OC[C@@]1(C#N)O[C@@H](c2ccc3c(N)ncnn23)[C@H](O)[C@@H]1O)Oc1ccccc1` [Example 54, butyl ((S)-(((2R,3S,4R,5S)-5-(4-aminopyrrolo[2,1-f][1,2,4]triazin-7-yl)-2-cyano-3,4-dihydroxytetrahydrofuran-2-yl)methoxy)(phenoxy)phosphoryl)-L-alaninate], the EC50 was 0.804 µM in test [7] (setting [12]); 2.59 µM in test [8] (setting [13]); 7.4 µM in test [3] (setting [14]); 0.378 µM in test [5] (setting [15]); 0.105 µM in test [6] (setting [16]).
Take `CCC(C)(C)COC(=O)[C@H](C)NP(=O)(OC[C@@]1(C#N)O[C@@H](c2ccc3c(N)ncnn23)[C@H](O)[C@@H]1O)Oc1ccccc1` (single isomer, unassigned) [Example 256]: the EC50 is 0.103 µM in test [7] (48 hours); more than 18.1 µM in test [8] (48 hours); more than 100 µM in test [3] (Huh-7 replicon cells, 48 hours); 0.054 µM in test [4]; 0.43 µM in test [6].
Regarding `C[C@H](NP(=O)(OC[C@@]1(C#N)O[C@@H](c2ccc3c(N)ncnn23)[C@H](O)[C@@H]1O)Oc1ccccc1)C(=O)O[C@H]1CCOC1` (single isomer, unassigned) [Example 66], the EC50 in test [1] (Hepatitis C virus, 72 h, read-out: HCV Rep 1B EC50, replicon cells, 3 days) is 14.9 µM; in test [2] (Hepatitis C virus, 72 h, read-out: HCV Rep 2A EC50, replicon cells, 3 days), 21.8 µM; in test [3] (setting [14]), more than 100 µM.
With `CCC(CC)COC(=O)[C@H](C)NP(=O)(N[C@@H](C)C(=O)OCC(CC)CC)OC[C@@]1(C#N)O[C@@H](c2ccc3c(N)ncnn23)[C@H](O)[C@@H]1O` [Example 7], the EC50 is more than 25 µM in test [7] (Dengue virus, DENV2, Dendritic cell, 48 hours); 32.9 µM in test [3] (setting [13]); 1.86 µM in test [4] (setting [17]); 5.94 µM in test [5] (setting [11]); 0.265 µM in test [6] (setting [17]).
With `CC(NP(=O)(OCC1(C#N)OC(c2ccc3c(N)ncnn23)C(O)C1O)Oc1ccccc1)C(=O)OC1CCOC1` (single isomer, unassigned) [Example 69], the EC50 is 25.3 µM in test [1] (setting [9]); 50.3 µM in test [2] (setting [10]); more than 100 µM in test [3] (Huh-7 replicon cells, 48 hours); 7.33 µM in test [5] (setting [11]).
As for `CC(C)(C)C(=O)OCCNP(=O)(OC[C@@]1(C#N)O[C@@H](c2ccc3c(N)ncnn23)[C@H](O)[C@@H]1O)Oc1ccccc1` (mixture of isomers) [Example 11, 2-(((((2R,3S,4R,5S)-5-(4-aminopyrrolo[2,1-f][1,2,4]triazin-7-yl)-2-cyano-3,4-dihydroxytetrahydrofuran-2-yl)methoxy)(phenoxy)phosphoryl)amino)ethyl pivalate], the EC50 in test [8] (setting [13]) is 3.5 µM; in test [3] (setting [14]) it was more than 50 µM; in test [4] (setting [18]), 0.269 µM; in test [5] (setting [15]), 1.2 µM; in test [6] (setting [16]), 0.054 µM.
For the compound `CC(NP(=O)(OCC1(C#N)OC(c2ccc3c(N)ncnn23)C(O)C1O)Oc1ccccc1)C(=O)OC1CCOC1` (single isomer, unassigned) [Example 70], the EC50 in test [1] (setting [9]) is 9.43 µM; in test [2] (setting [10]) it was 32.7 µM; in test [3] (Huh-7 replicon cells, 48 hours), more than 100 µM; in test [5] (setting [11]) it was 5.23 µM.
Turning to `CCCCCCCCCCCC(=O)Nc1ncnn2c([C@@H]3O[C@](C#N)(CO[P@@](=O)(N[C@@H](C)C(=O)OC4CCCCC4)Oc4ccccc4)[C@@H](O)[C@H]3O)ccc12` [Example 232, Cyclohexyl ((S)-(((2R,3S,4R,5S)-2-cyano-5-(4-dodecanamidopyrrolo[2,1-f][1,2,4]triazin-7-yl)-3,4-dihydroxytetrahydrofuran-2-yl)methoxy)(phenoxy)phosphoryl)-L-alaninate], the EC50 in test [7] (setting [12]) was 1.09 µM; in test [3] (setting [14]) it was 5.32 µM; in test [4] (setting [18]) it was 0.061 µM; in test [5] (setting [15]), 0.479 µM; in test [6] (setting [16]) it was 0.098 µM.
Regarding `COCCCOC(=O)[C@H](C)NP(=O)(OC[C@@]1(C#N)O[C@@H](c2ccc3c(N)ncnn23)[C@H](O)[C@@H]1O)Oc1ccccc1` (single isomer, unassigned) [Example 60], the EC50 came to 6.08 µM in test [1] (setting [9]); 10.8 µM in test [2] (setting [10]); 6.82 µM in test [8] (48 hours); 41.3 µM in test [3] (Huh-7 replicon cells, 48 hours); 0.583 µM in test [4]; 0.361 µM in test [6].

Broadly, the EC50 is the concentration giving half of the maximal effect.
